Laboratory results published in PubChem BioAssay (NCI).
Values joined by “and” are separate entries in the source; they are usually repeats but may differ in a detail not shown here. Identical values can stand only once.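 1) Cells in 96-well plates. 2) Compound, 48 h, 5 concentrations. 3) Linear interpolation between surrounding doses. 4) Unreached endpoint = highest concentration. GI50 = concentration required for 50% inhibition of growth. TGI denotes the concentration required for complete inhibition of growth.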

Key:
Experiment in all cases: NCI tumour cell line growth inhibition, 48 h
MDA-MB-468 breast = test system: MDA-MB-468 breast
COLO 205 colon = test system: COLO 205 colon
HT29 colon = test system: HT29 colon
NCI-H226 lung = test system: NCI-H226 lung
UACC-62 melanoma = test system: UACC-62 melanoma
UACC-257 melanoma = test system: UACC-257 melanoma
MOLT-4 leukemia = test system: MOLT-4 leukemia
IGROV1 ovarian = test system: IGROV1 ovarian
SK-MEL-2 melanoma = test system: SK-MEL-2 melanoma
SK-OV-3 ovarian = test system: SK-OV-3 ovarian
U251 CNS = test system: U251 CNS
HCT-15 colon = test system: HCT-15 colon
A498 renal = test system: A498 renal
M14 melanoma = test system: M14 melanoma
HCC-2998 colon = test system: HCC-2998 colon
PC-3 prostate = test system: PC-3 prostate
HL-60(TB) leukemia = test system: HL-60(TB) leukemia
K-562 leukemia = test system: K-562 leukemia
HS 578T breast = test system: HS 578T breast
MDA-MB-231 breast = test system: MDA-MB-231 breast
SK-MEL-28 melanoma = test system: SK-MEL-28 melanoma
MALME-3M melanoma = test system: MALME-3M melanoma
LOX IMVI melanoma = test system: LOX IMVI melanoma
TK-10 renal = test system: TK-10 renal
SNB-75 CNS = test system: SNB-75 CNS
SF-539 CNS = test system: SF-539 CNS
SN12C renal = test system: SN12C renal
HOP-92 NSCLC = test system: HOP-92 NSCLC
UO-31 renal = test system: UO-31 renal
SR leukemia = test system: SR leukemia
786-0 renal = test system: 786-0 renal
MDA-MB-435 = test system: MDA-MB-435
NCI-H522 lung = test system: NCI-H522 lung
CAKI-1 renal = test system: CAKI-1 renal
HCT-116 colon = test system: HCT-116 colon
CCRF-CEM leukemia = test system: CCRF-CEM leukemia
ACHN renal = test system: ACHN renal
A549 NSCLC = test system: A549 NSCLC
OVCAR-5 ovarian = test system: OVCAR-5 ovarian
RPMI-8226 leukemia = test system: RPMI-8226 leukemia
SNB-19 CNS = test system: SNB-19 CNS
SK-MEL-5 melanoma = test system: SK-MEL-5 melanoma
DU-145 prostate = test system: DU-145 prostate
SF-268 CNS = test system: SF-268 CNS
OVCAR-4 ovarian = test system: OVCAR-4 ovarian

CN(C)CCCOc1ccccc1NC1=C(Cl)C(=O)C(Nc2ccccc2OCCCN(C)C)=C(Cl)C1=O
GI50 (MDA-MB-468 breast): 0.175 µM | TGI (MDA-MB-468 breast): 0.352 µM

Cc1[nH]ncc1-c1cc2nc(C3CC4CCN3CC4)[nH]c(=O)c2s1 (stereo not drawn)
GI50 (MDA-MB-468 breast): 9.05 µM | TGI (MDA-MB-468 breast): 32.2 µM

CN1CCc2cc3c(cc2C1O)OCO3 (stereo not drawn)
GI50 (MDA-MB-468 breast): 16 µM and > 100 µM | TGI (MDA-MB-468 breast): 34.4 µM and > 100 µM

CNC(=O)c1cc(COc2nnc(Nc3ccc(Cl)cc3)c3ccoc23)ccn1
GI50 (MDA-MB-468 breast): 6.94 µM and > 10 µM | TGI (MDA-MB-468 breast): 30.9 µM and > 10 µM

COc1cc(/C(Cl)=C/C=C/C(=O)c2c(C)[n+]([O-])c3ccc(Cl)cc3[n+]2[O-])cc(OC)c1OC
GI50 (MDA-MB-468 breast): 1.87 µM | TGI (MDA-MB-468 breast): 9.29 µM

COC(=O)[C@@H](NC(=O)NC(=O)NC(=O)CI)C(C)C
GI50 (MDA-MB-468 breast): 3.89 µM | TGI (MDA-MB-468 breast): 16 µM

Nc1ccn(C2OC(CO)C(O)C2F)c(=O)n1 (stereo not drawn)
GI50 (MDA-MB-468 breast): > 5000 µM | TGI (MDA-MB-468 breast): > 5000 µM

CN1CCN(c2ccc(C(=O)Nc3n[nH]c4ccc(Cc5cc(F)cc(F)c5)cc34)c(NC3CCOCC3)c2)CC1
GI50 (MDA-MB-468 breast): 1.35 µM | TGI (MDA-MB-468 breast): 3.09 µM and 2.91 µM

Cn1ccnc1C(=O)/C=C/c1ccc(NC(=O)c2ccc(F)cc2)cc1
GI50 (MDA-MB-468 breast): 2.87 µM | TGI (MDA-MB-468 breast): 15.9 µM

Cn1cc(-c2cc3nc(-c4c[nH]c5ccc(Br)cc45)cc(N)n3n2)c2ccccc21
GI50 (COLO 205 colon): 1890 nM | TGI (COLO 205 colon): 3.51 µM | GI50 (HT29 colon): 1660 nM | TGI (HT29 colon): 3.08 µM | GI50 (NCI-H226 lung): 1960 nM | TGI (NCI-H226 lung): 5.07 µM | GI50 (UACC-62 melanoma): 1540 nM | TGI (UACC-62 melanoma): 2920 nM | GI50 (UACC-257 melanoma): 1720 nM | TGI (UACC-257 melanoma): 3.26 µM | GI50 (MOLT-4 leukemia): 1670 nM | TGI (MOLT-4 leukemia): 5.15 µM | GI50 (IGROV1 ovarian): 1500 nM | TGI (IGROV1 ovarian): 2980 nM | GI50 (SK-MEL-2 melanoma): 1740 nM | TGI (SK-MEL-2 melanoma): 3.48 µM | GI50 (SK-OV-3 ovarian): 1980 nM | TGI (SK-OV-3 ovarian): 4.03 µM | GI50 (U251 CNS): 1720 nM | TGI (U251 CNS): 3.27 µM | GI50 (HCT-15 colon): 1430 nM | TGI (HCT-15 colon): 2790 nM | GI50 (A498 renal): 1670 nM | TGI (A498 renal): 3.34 µM | GI50 (M14 melanoma): 2290 nM | TGI (M14 melanoma): 5.78 µM | GI50 (HCC-2998 colon): 1790 nM | TGI (HCC-2998 colon): 3.26 µM | GI50 (PC-3 prostate): 1640 nM | TGI (PC-3 prostate): 3.24 µM | GI50 (HL-60(TB) leukemia): 1840 nM | TGI (HL-60(TB) leukemia): 4.34 µM | GI50 (K-562 leukemia): 2290 nM | TGI (K-562 leukemia): 5.94 µM | GI50 (HS 578T breast): 1980 nM | TGI (HS 578T breast): 4.87 µM | GI50 (MDA-MB-231 breast): 1770 nM | TGI (MDA-MB-231 breast): 3.17 µM | GI50 (SK-MEL-28 melanoma): 1780 nM | TGI (SK-MEL-28 melanoma): 3.22 µM | GI50 (MALME-3M melanoma): 1660 nM | TGI (MALME-3M melanoma): 3.01 µM | GI50 (LOX IMVI melanoma): 1680 nM | TGI (LOX IMVI melanoma): 3.04 µM | GI50 (TK-10 renal): 1430 nM | TGI (TK-10 renal): 2790 nM | GI50 (SNB-75 CNS): 1320 nM | TGI (SNB-75 CNS): 3.11 µM | GI50 (SF-539 CNS): 1660 nM | TGI (SF-539 CNS): 3.07 µM | GI50 (SN12C renal): 1650 nM | TGI (SN12C renal): 3.05 µM | GI50 (HOP-92 NSCLC): 1510 nM | TGI (HOP-92 NSCLC): 3.08 µM | GI50 (UO-31 renal): 1430 nM | TGI (UO-31 renal): 2730 nM | GI50 (SR leukemia): 1650 nM | TGI (SR leukemia): 5.28 µM | GI50 (786-0 renal): 1600 nM | TGI (786-0 renal): 3.27 µM | GI50 (MDA-MB-468 breast): 1.49 µM | TGI (MDA-MB-468 breast): 3.01 µM | GI50 (MDA-MB-435): 1710 nM | TGI (MDA-MB-435): 3.09 µM | GI50 (NCI-H522 lung): 1500 nM | TGI (NCI-H522 lung): 3.08 µM | GI50 (CAKI-1 renal): 1500 nM | TGI (CAKI-1 renal): 3.06 µM | GI50 (HCT-116 colon): 3000 nM | TGI (HCT-116 colon): > 100 µM | GI50 (CCRF-CEM leukemia): 2670 nM | TGI (CCRF-CEM leukemia): 9.34 µM | GI50 (ACHN renal): 1690 nM | TGI (ACHN renal): 3.13 µM | GI50 (A549 NSCLC): 1530 nM | TGI (A549 NSCLC): 3.45 µM | GI50 (OVCAR-5 ovarian): 1620 nM | TGI (OVCAR-5 ovarian): 3.26 µM | GI50 (RPMI-8226 leukemia): 2730 nM | TGI (RPMI-8226 leukemia): 7.93 µM | GI50 (SNB-19 CNS): 1670 nM | TGI (SNB-19 CNS): 3.09 µM | GI50 (SK-MEL-5 melanoma): 1710 nM | TGI (SK-MEL-5 melanoma): 3.15 µM | GI50 (DU-145 prostate): 1920 nM | TGI (DU-145 prostate): 3.75 µM | GI50 (SF-268 CNS): 1890 nM | TGI (SF-268 CNS): 4.43 µM | GI50 (OVCAR-4 ovarian): 1710 nM | TGI (OVCAR-4 ovarian): 3.49 µM
